Measurements published in US20260355199A1, “COMPOSITIONS AND METHODS FOR TREATING OR PREVENTING NONALCOHOLIC STEATOHEPATITIS (NASH), ANOREXIA, DEPRESSION, ENDOMETRIOSIS, AND OTHER DISEASES OR DISORDERS” (priority 2022, published 2026).
“Also recorded” adds a separate entry of the source.

Assays:
[1] = system: Agrp promoter; experiment: hMeDIP-qPCR (5hmC) at the Agrp promoter in mouse ARC; format: in vivo; details: leptin- vs. saline-treated
Procedure: To assess leptin effects on suppression of hunger-induced appetite, female Cas9+ mice injected with AAV or AAV-sgTet3 bilaterally into the ARC were fasted overnight for 22 h. On the second day, mouse leptin (L3772-1MG, Sigma Aldrich) was administrated at 5 mg/kg intraperitoneally at 10:00 and pre-weighed food was placed in the cage and monitored for the following 24 h. For ChIP studies, Cas9+ mice injected with AAV or AAVsgTet3 bilaterally into the ARC were fasted overnight for 22 h. On the second day, saline or leptin (5 mg/kg) was administrated intraperitoneally at 10:00. Two hours later, ARCs were isolated for ChIP-qPCR analysis. To examine leptin-induced protein-protein interactions, Cas9+ mice were fasted overnight for 22 h. […]
The experiments were carried out using the EpiQuik hMeDIP Kit (P-1038-48, Epigentek) according to the manufacturer's instructions. […] Sheared DNA fragments (ranged in size from 200-600 bps as assessed by agarose gel electrophoresis) were immunoprecipitated using the 5hmC rabbit polyclonal antibody from the kit. qPCR was performed in a 25 μl reaction containing 2.5 μl of the eluted DNA using iTAC SYBGreen in a Bio-Rad iCycler. The relative enrichments (after normalization against control IgG) of the indicated DNA regions were calculated using the Percent Input Method according to the manufacturer's instructions.

[2] = system: AgRP neurons; experiment: AgRP neuron viability and activation (FOS); format: in vivo, mouse; details: Bobcat339 vs. vehicle mice
Description: As genetic TET3 knockdown specifically in AgRP neurons activated these neurons (Xie et al., 2022, J Clin Invest, 132), additional studies tested whether Bobcat339 treatment can activate AgRP neurons using FOS (a marker for neuronal activation) as a readout. Thus, ARCs were isolated under fed conditions (9:00-11:00) from mice treated with Bobcat339 or vehicle as above (FIG. 16A through FIG. 16D).
(§1) Bobcat339 powder (Sigma-Aldrich, SML2611) was freshly dissolved in DMSO (vehicle) at a concentration of 50 mg/mL and filtered through a 0.22 micron. It was further diluted with 1×PBS to a final concentration of 0.5 mg/mL before injections. Mice were injected intraperitoneally with Bobcat339 at 1 mg/kg, 2.5 mg/kg, or 4 mg/kg.
(§2) The immunofluorescence for brain slices was conducted using previous methods (18). In brief, postfixed sections were cut into 40-μm-thick sections, followed by 5 times washing. […] The sections were coverslipped and scoped using a Keyence BZ-X700 fluorescence microscope. The fluorescence signals from GFP in AgRP neurons were detected without immunostaining.

[3] = system: let-7a; experiment: let-7a level in mouse peritoneal macrophages; format: cell-based; details: 10 μM, 48 h
Procedure: For cultured mouse peritoneal macrophages, cells were primed with 30 ng/ml of TGF-β1 (R&D Systems, 7666-MB0-005) for 48 h (to increase TET3 expression) before Bobcat339 treatment. Bobcat339 (or DMSO) was added at a final concentration of 10 μM, followed by RNA and protein extraction at time points indicated in the figure legends.
For let-7a qPCR, 10 ng of total RNA was reverse transcribed to cDNA in a reaction volume of 10 μl using miRCURY LNA RT Kit (QIAGEN, 339340). Quantitative real-time PCR reactions were carried out using miRCURY LNA SYBR Green PCR Kit (QIAGEN, 339346) and a let-7a-specific primer (Has-Let-7a-5p miRCURY LNA miRNA PCR Assay, QIAGEN, 339306/YP00205727) in a Bio-Rad iCycler. Gene expression levels were normalized against U6 (U6 snRNA v2 miRURY LNA miRNA PCR Assay, QIAGEN, 339306/YPO2119464, QIAGEN).

[4] = system: activity-based anorexia (ABA) mice; details: temporal (3 days); cited from earlier work
[5] = system: TET2; details: cited from earlier work
[6] = system: TET2; experiment: TET2 expression in the ARC of mice; format: in vivo, mouse; details: 2.5 mg/kg i.p., two days
Procedure: To test whether Bobcat339 affects TET3 protein expression in AgRP neurons, Agrp-IRES-Cre::LSL-Cas9-GFP mice with GFP expression specifically in AgRP neurons were intraperitoneally injected with vehicle or Bobcat339 at 2.5 mg/kg, followed by isolation of ARCs under fed conditions (9:00-11:00) two days later. This dose was chosen based on the dose response studies. TET2 expression was widespread but was negligible in AgRP neurons.
as §1, §2

Row | Compound | 5hmC in the Agrp promoter [1] | AgRP neuronal viability / number [2] | FOS expression in AgRP neurons ([2]; fed) | let-7a level [3] | food intake [4] | inhibitory activity against TET2 ([5]; in the absence of contaminating copper (II)) | inhibition of enzymatic activity of TET2 ([5]; initially reported) | TET2 expression [6]
1 | leptin: adipose hormone; mouse leptin L3772-1MG or human leptin L4146-1MG, Sigma Aldrich | an increase in 5hmC in the Agrp promoter | – | – | – | – | – | – | –
2 | Nc1nc(=O)n(-c2cccc(-c3ccccc3)c2)cc1Cl [Bobcat339, 4-Amino-1-[1,1′-biphenyl]-3-yl-5-chloro-2(1H)-pyrimidinone] | – | did not affect AgRP neuronal viability; also recorded: no significant difference between the groups | increased expression of FOS in AgRP neurons | higher levels of let-7a | increase food intake | negligible inhibitory activity | inhibit the enzymatic activity | did not significantly affect TET2 expression
